The source of these data is patent US6858632B2, “Derivatives of isosorbide mononitrate and its use as vasodilating agents with reduced tolerance” (Lacer, S.A., priority 1998, dated 2005).

“Also recorded” adds a separate entry of the source. Where a name gives a salt, the structure may show the parent alone. Read-outs that look alike come from different tables or passages of the source.

The test system of assay [1] is arterial ring previously contracted with 1 μM of Norepinephrine. In words: Test of vasodilatation (arterial rings pre-contracted with norepinephrine). The conditions noted are these: for EC50: read-out: CE50 (concentration effective 50), vasodilatation of 50% of the arterial ring (average ± SD). As to the method: The method used in the assays is substantially the same as described in following references: • Furchgot, R. F. “Methods in nitric oxide research”. Feelisch & Stamler eds. John Wiley & Sons, Chichester, England, pp 567-581. • Trongvanichnam, K, et al. Jpn J. Pharmacol. 1996; 71:167-173. • Salas, E., et al. Eur. J. Pharmacol. 1994; 258:47-55.
The different compounds are tested at 5 different concentrations, at a concentration range from 0.001 to 10 mM, using from 6 to 9 arterial rings for each compound. The obtained results are compared to those from the isosorbide 5-mononitrate, which is used as reference product.
The results are shown in table 1 below and are provided as CE50 (concentration effective 50), which is the concentration of each of the tested compounds wherein there is produced a vasodilatation of 50% of the arterial ring previously contracted with 1 μM of Norepinephrine.

Assay [2] deals with arterial segments of the rats. Briefly: Assay of tolerance (ex vivo vasodilatation of arterial segments after subcutaneous administration for three days). The format is in vivo. The note with it: for development of tolerance (in words): rats, 10 mg/Kg s.c. each eight hours for three days. As to the method: The different compounds tested are subcutaneously administered to rats at a dose of 10 mg/Kg for three days, each eight hours, and the assay is then done ex vivo to test the capacity to vasodilate the arterial segments of the rats after the subcutaneous administration of the compound.
The method followed is substantially the same as described in following references: • De Garavilla, L., et al. Eur. J. Pharmacol. 1996; 313:89-96. • Keith, R. A., et al. J. Pharmacol. Exp. Ther. 1982; 221:525-531.
The different compounds are tested at 5 different concentrations, at a concentration range from 0.001 to 10 mM, using from 6 to 9 arterial rings for each compound. The obtained results are compared to those from the isosorbide 5-mononitrate, which is used as reference product, and with those obtained from the animals wherein there have not been administered any compound.

[3] abbreviates: arterial ring previously contracted with 1 μM Norepinephrine, 6 to 9 rings, 0.001 to 10 mM.

Turning to `O=[N+]([O-])O[C@@H]1CO[C@H]2[C@@H]1OC[C@@H]2O` [isosorbide 5-mononitrate, reference compound], the EC50 in assay [1] (setting [3]) was 920 ± 200 µM; in assay [2] (Group A: rats not given any compound, ex vivo arterial rings, read-out: CE50, animals without any compound administrated during three days (Group A) (average ± SD)) it was 920 ± 200 µM; in assay [2] (Group B: rats given compound subcutaneously, 10 mg/Kg each eight hours for three days, ex vivo arterial rings, read-out: CE50, animals with compound administrated during three days (Group B) (average ± SD)), 6500 ± 1500 µM. In addition, the “CE50 in treated animals relative to CE50 in not treated animals (times)” value in assay [2] (Group B versus Group A) is reported as “seven”. The “development of tolerance (in words)” value in assay [2] is on record as “strong developments of tolerance”.
Consider `CCSc1ncccc1C(=O)O[C@H]1CO[C@H]2[C@@H]1OC[C@H]2O[N+](=O)[O-]` [Compound 1, isosorbide 2-(2′-ethylthio)nicotinate 5-mononitrate hydrochloride], for which the EC50 in assay [1] came out at 130 ± 10 µM; in assay [2] (Rattus norvegicus, sc, 72 h, read-out: CE50, animals without any compound administrated during three days (Group A) (average ± SD)), 130 ± 10 µM. The “vasodilating activity compared with the reference product (in words)” value in assay [1] (reference: isosorbide 5-mononitrate) is recorded as “superior to that of the reference product”. Also, the EC50 at 10 mg/kg in assay [2] (Rattus norvegicus, sc, read-out: CE50, animals with compound administrated during three days (Group B) (average ± SD)) came out at 590 ± 100 µM. Further, in assay [2], the “development of tolerance (in words)” value is “development of less tolerance as compared to the reference product”.
For the compound `CC(=O)S[C@H]1CO[C@H]2[C@@H]1OC[C@H]2O[N+](=O)[O-]` [Compound 5, 2-acetylmercaptoisosorbide 5-mononitrate], the EC50 in assay [1] (setting [3]) is 950 ± 100 µM; in assay [2] (Rattus norvegicus, sc, 72 h, Group A: rats not given any compound, ex vivo arterial rings, read-out: CE50, animals without any compound administrated during three days (Group A) (average ± SD)), 950 ± 100 µM. Further, the EC50 at 10 mg/kg in assay [2] (Rattus norvegicus, sc, Group B: rats given compound subcutaneously, 10 mg/Kg each eight hours for three days, ex vivo arterial rings, read-out: CE50, animals with compound administrated during three days (Group B) (average ± SD)) was 990 ± 100 µM. Besides, the “development of tolerance (in words)” value in assay [2] (10 mg/kg) is given as “development of less tolerance as compared to the reference product; also recorded: practically null”.
